Assay results published in patent US11814371B2, “Heterocyclic compound” (MEDSHINE DISCOVERY INC., priority 2020, dated 2023).
Where two headings read alike, the source gives them in different places.

What was measured:
[1] = Pharmacokinetic test in rat eyes after intragastric administration (eye tissue and plasma, LC-MS/MS); format: in vivo, male SD rats; settings: intragastric 75 mg/kg
Method: Male SD rats were used as test animals, and LC-MS/MS method was used to determine the drug concentrations in eye tissues at different times after intragastric administration of the test compound. The pharmacokinetic behavior of the compounds in the eyes of rats after intragastric administration was studied, and the pharmacokinetic characteristics were evaluated.
2.2 Test animals: Six healthy adult male rats were divided into three groups with 4 eyes in each group. Animals were purchased from Beijing Vital River Laboratory Animal Technology Co., Ltd.
2.3 Drug preparation: An appropriate amount of sample was weighed, and an appropriate amount of DMSO and labrasol were added in sequence according to the volume ratio of 10:90, then the mixture was stirred and sonicated to reach a clear state of 15 mg/mL for intragastric administration.
2.4 Administration: 6 male SD rats were divided into 3 groups, after fasting for one night, the intragastric administration group was administered with a volume of 5 mL/kg and a dose of 75 mg/kg.
Male rats were euthanized at 1, 4 and 8 hours after intragastric administration of compound 1, and eye tissues from 2 eyes of each rat were combined and the concentration of compound in the retina and choroid/sclera was measured.
The LC-MS/MS method was used to determine the content of the test compound in the eye tissues of rats after intragastric administration. The linear range of the method was from 2.00 to 6000 nmol/L; the eye tissue concentration data are presented in Table 3, in which each eye tissue concentration data was obtained from the combined left and right eyes of 2 rats.

[2] = Pharmacokinetic test in rats after intravenous and intragastric administration (plasma, LC-MS/MS); format: in vivo; settings: male, SD, rat; for bioavailability: read-out: Bioavailability F; for AUC(0-inf): read-out: Curve area (o-inf) AUC0-inf; for AUC(0-t): read-out: Curve area (o-t) AUC0-last; for half-life: read-out: Half-life T½ (converted); for Tmax: read-out: Peak time Tmax; for Cmax: read-out: Plasma drug concentration Cmax; for Vd: read-out: Apparent volume of distribution Vdss; for clearance: read-out: Clearance rate Cl
Method: Male SD rats were used as test animals, and LC-MS/MS method was used to determine the drug concentrations in plasma of rats at different times after intravenous and intragastric administration of test compounds. The pharmacokinetic behaviors of the compounds in rats were studied and the pharmacokinetic characteristics were evaluated.
2.2 Test animals: 28 healthy adult male SD rats were divided into 14 groups with 2 rats in each group. Animals were purchased from Beijing Vital River Laboratory Animal Technology Co., Ltd.
(§1) An appropriate amount of sample was weighed, and an appropriate amount of DMSO, polyoxyethylene castor oil and sterile water for injection were added in sequence according to the volume ratio of 10:10:80, then the mixture was stirred and sonicated to reach a clear state of 0.5 mg/mL for intravenous administration.
as §1, with “clear or suspension” for “clear”, “0.4” for “0.5”, “intragastric” for “intravenous”
as §1, with “3” for “0.5”
2.4 Administration: 28 male SD rats were divided into 14 groups, after fasting for one night, the intravenous administration group was administered with an administration volume of 2 mL/kg and a dose of 1 mg/kg; the intragastric administration group 1 was administered with an administration volume of 5 mL/kg and a dose of 2 mg/kg. The intragastric administration group 2 was administered with an administration volume of 10 mL/kg and a dose of 30 mg/kg.
After the compound was administered intravenously to male SD rats, 40 µL of blood was collected at 0.0833, 0.25, 0.5, 1, 2, 4, 8 and 24 hours, respectively, and placed in tubes containing 2 µL of EDTA-K2. After the compound was administered in the intragastric administration group, 40 µL of blood was collected at 0.25, 0.5, 1, 2, 4, 6, 10 and 24 hours, respectively, and placed in tubes containing 2 µL of EDTA-K2. The tubes were centrifuged at 4000 rpm for 15 minutes to separate the plasma, and stored at -60° C. Animals were allowed to eat 2 hours after administration.
LC-MS/MS method was used to determine the content of the test compounds in the plasma of rats after intravenous and intragastric administration. The linear range of the method was 2.00 - 6000 nmol/L; plasma samples were treated with acetonitrile to precipitate protein, and then analyzed.

[3] = po, intragastric administration (group 1), nominal 2 mg/kg (actual dose in c2)
[4] = intravenous administration, nominal 1 mg/kg (actual dose in c2)
[5] = po, intragastric administration (group 2), nominal 30 mg/kg (actual dose in c2)

Row | bioavailability [2, 3] | AUC(0-inf) [2, 3] | AUC(0-t) [2, 3] | half-life [2, 3] | Tmax [2, 3] | Cmax [2, 3] | Vd [2, 4] | clearance [2, 4] | AUC(0-inf) [2, 4] | AUC(0-t) [2, 4] | half-life [2, 4] | SMILES | other results
1 | 15.3% | 1.34 µM·h | 1.33 µM·h | 93.6 min | 30 min | 1140 nM | 0.202 L/kg | 7.09 mL/min/kg | 4.38 µM·h | 4.35 µM·h | 37.4 min | COc1ccc(F)c(CNC(=O)c2cn(Cc3ccc(Cn4cc(F)ccc4=O)cc3)nc2C2COC2)c1F [Compound 1] | AUC0-8h Choroid and sclera [1]: 2803 nmol·h/kg; Concentration of compound in Choroid and sclera ([1]; 1 hour): 640 nmol/kg; Concentration of compound in Retina ([1]; 1 hour): 90.8 nmol/kg; Concentration of compound in Choroid and sclera ([1]; 4 hours): 450 nmol/kg; Concentration of compound in Retina ([1]; 4 hours): 147 nmol/kg; Concentration of compound in Choroid and sclera ([1]; 8 hours): 82 nmol/kg; concentration at 1 h ([1]; male, SD, plasma, oral, 1 hour, read-out: Concentration of compound in Plasma): 3690 nM; concentration at 4 h ([1]; male, SD, plasma, oral, 4 hours, read-out: Concentration of compound in Plasma): 6440 nM; concentration at 8 h ([1]; male, SD, plasma, oral, 8 hours, read-out: Concentration of compound in Plasma): 729 nM; AUC(0-t) ([1]; male, SD, plasma, po, read-out: AUC0-8h Plasma): 22 µM·h
2 | 11.2% | 0.591 µM·h | 0.584 µM·h | 94.2 min | 15 min | 680 nM | 0.188 L/kg | 12.2 mL/min/kg | 2.62 µM·h | 2.62 µM·h | 23.5 min | COc1ccc(F)c(CNC(=O)c2cn(Cc3ccc(Cn4cc(F)ccc4=O)c(F)c3)nc2C2COC2)c1F [Compound 8] | bioavailability [2, 5]: 54%; AUC(0-inf) [2, 5]: 42.5 µM·h; AUC(0-t) [2, 5]: 42.4 µM·h; half-life [2, 5]: 115 min; Tmax [2, 5]: 15 min; Cmax [2, 5]: 18600 nM
